Organism: Rattus norvegicus
Test: Open TG-GATES - Regimen: Single
Type: toxicity, organism-based, Sprague-Dawley
Parameters: regimen Single, gender Male, age 6 weeks
Settings: in vivo, po, 2000 mg/kg, route gavage, dose level High; for APTT / Bas / Eos / Fbg / Hb / Ht / Lym / MCH / MCHC / MCV / Mono / Neu / Plat / RBC / Ret / WBC: tissue Blood; for KIDNEY_L / KIDNEY_R / KIDNEY_TOTAL: tissue Kidney; for LIVER: tissue Liver; for ALP / ALT / AST / BUN / CRE / Ca / Cl / DBIL / GLC / IP / K / LDH / Na / PL / RALB / TBIL / TC / TG / TP / gamma-GTP: tissue Plasma

Structure (SMILES): CC(=O)Oc1ccccc1C(=O)O [ASPIRIN]
- TERMINAL_BW (3 h): 220 g
- APTT (3 h): 19.5 s
- Bas (3 h): 0%
- Eos (3 h): 1.2%
- Fbg (3 h): 224.8 mg/dL
- Hb (3 h): 13.7 g/dL
- Ht (3 h): 37.7%
- Lym (3 h): 62.2%
- MCH (3 h): 21.9 pg
- MCHC (3 h): 36.3%
- MCV (3 h): 60.4 fL
- Mono (3 h): 4.6%
- Neu (3 h): 30.4%
- Plat (3 h): 124.1 x10_4/uL
- RBC (3 h): 625.8 x10_4/ul
- Ret (3 h): 8.1%
- WBC (3 h): 71.4 x10_2/uL
- KIDNEY_L (3 h): 1 g
- KIDNEY_R (3 h): 1 g
- KIDNEY_TOTAL (3 h): 1.9 g
- LIVER (3 h): 8.9 g
- ALP (3 h): 991.6 IU/L
- ALT (3 h): 41.4 IU/L
- AST (3 h): 86.6 IU/L
- BUN (3 h): 15.6 mg/dL
- CRE (3 h): 0.4 mg/dL
- Ca (3 h): 8.3 mg/dL
- Cl (3 h): 103.6 meq/L
- DBIL (3 h): 0.06 mg/dL
- GLC (3 h): 200 mg/dL
- IP (3 h): 9 mg/dL
- K (3 h): 3.4 meq/L
- LDH (3 h): 248.4 IU/L
- Na (3 h): 141 meq/L
- PL (3 h): 96.4 mg/dL
- RALB (3 h): 3.5 g/dL
- TBIL (3 h): 0.1 mg/dL
- TC (3 h): 62 mg/dL
- TG (3 h): 24 mg/dL
- TP (3 h): 5.8 g/dL
- gamma-GTP (3 h): 1.4 IU/L
- TERMINAL_BW (6 h): 217 g
- APTT (6 h): 20.8 s
- Bas (6 h): 0%
- Eos (6 h): 0.8%
- Fbg (6 h): 225.6 mg/dL
- Hb (6 h): 13.7 g/dL
- Ht (6 h): 37.8%
- Lym (6 h): 63.8%
- MCH (6 h): 22.1 pg
- MCHC (6 h): 36.3%
- MCV (6 h): 60.8 fL
- Mono (6 h): 3%
- Neu (6 h): 31.6%
- Plat (6 h): 118.3 x10_4/uL
- RBC (6 h): 622 x10_4/ul
- Ret (6 h): 8.3%
- WBC (6 h): 91.9 x10_2/uL
- KIDNEY_L (6 h): 1 g
- KIDNEY_R (6 h): 1 g
- KIDNEY_TOTAL (6 h): 2 g
- LIVER (6 h): 8.3 g
- ALP (6 h): 843.8 IU/L
- ALT (6 h): 35.4 IU/L
- AST (6 h): 79 IU/L
- BUN (6 h): 17.8 mg/dL
- CRE (6 h): 0.4 mg/dL
- Ca (6 h): 8.1 mg/dL
- Cl (6 h): 104.2 meq/L
- DBIL (6 h): 0.056 mg/dL
- GLC (6 h): 221.4 mg/dL
- IP (6 h): 7.9 mg/dL
- K (6 h): 3.2 meq/L
- LDH (6 h): 233.4 IU/L
- Na (6 h): 140.4 meq/L
- PL (6 h): 103.4 mg/dL
- RALB (6 h): 3.5 g/dL
- TBIL (6 h): 0.1 mg/dL
- TC (6 h): 67.8 mg/dL
- TG (6 h): 12.2 mg/dL
- TP (6 h): 5.7 g/dL
- gamma-GTP (6 h): 1.2 IU/L
- TERMINAL_BW (9 h): 217.3 g
- APTT (9 h): 22.1 s
- Bas (9 h): 0%
- Eos (9 h): 0.8%
- Fbg (9 h): 224.8 mg/dL
- Hb (9 h): 13.9 g/dL
- Ht (9 h): 38.3%
- Lym (9 h): 65%
- MCH (9 h): 21.8 pg
- MCHC (9 h): 36.3%
- MCV (9 h): 60.1 fL
- Mono (9 h): 2.2%
- Neu (9 h): 31.2%
- Plat (9 h): 127.8 x10_4/uL
- RBC (9 h): 636.2 x10_4/ul
- Ret (9 h): 8%
- WBC (9 h): 88.7 x10_2/uL
- KIDNEY_L (9 h): 0.9 g
- KIDNEY_R (9 h): 0.9 g
- KIDNEY_TOTAL (9 h): 1.8 g
- LIVER (9 h): 7.9 g
- ALP (9 h): 712.8 IU/L
- ALT (9 h): 34.4 IU/L
- AST (9 h): 77.2 IU/L
- BUN (9 h): 15 mg/dL
- CRE (9 h): 0.4 mg/dL
- Ca (9 h): 8 mg/dL
- Cl (9 h): 105.2 meq/L
- DBIL (9 h): 0.048 mg/dL
- GLC (9 h): 211.4 mg/dL
- IP (9 h): 7.6 mg/dL
- K (9 h): 3.3 meq/L
- LDH (9 h): 212.4 IU/L
- Na (9 h): 139.4 meq/L
- PL (9 h): 97.2 mg/dL
- RALB (9 h): 3.4 g/dL
- TBIL (9 h): 0.092 mg/dL
- TC (9 h): 59.4 mg/dL
- TG (9 h): 11 mg/dL
- TP (9 h): 5.6 g/dL
- gamma-GTP (9 h): 0.8 IU/L
- TERMINAL_BW (24 h): 210.7 g
- APTT (24 h): 32.6 s
- Bas (24 h): 0%
- Eos (24 h): 0.8%
- Fbg (24 h): 223 mg/dL
- Hb (24 h): 14.7 g/dL
- Ht (24 h): 39.8%
- Lym (24 h): 69.2%
- MCH (24 h): 22 pg
- MCHC (24 h): 37%
- MCV (24 h): 59.4 fL
- Mono (24 h): 2.6%
- Neu (24 h): 26.4%
- Plat (24 h): 125.8 x10_4/uL
- RBC (24 h): 669.4 x10_4/ul
- Ret (24 h): 7.5%
- WBC (24 h): 56.2 x10_2/uL
- KIDNEY_L (24 h): 0.9 g
- KIDNEY_R (24 h): 0.9 g
- KIDNEY_TOTAL (24 h): 1.9 g
- LIVER (24 h): 7 g
- ALP (24 h): 912.4 IU/L
- ALT (24 h): 30 IU/L
- AST (24 h): 138.6 IU/L
- BUN (24 h): 14.6 mg/dL
- CRE (24 h): 0.4 mg/dL
- Ca (24 h): 7 mg/dL
- Cl (24 h): 104 meq/L
- DBIL (24 h): 0.048 mg/dL
- GLC (24 h): 230.6 mg/dL
- IP (24 h): 6.3 mg/dL
- K (24 h): 3.1 meq/L
- LDH (24 h): 232.4 IU/L
- Na (24 h): 138.4 meq/L
- PL (24 h): 81.6 mg/dL
- RALB (24 h): 3.5 g/dL
- TBIL (24 h): 0.092 mg/dL
- TC (24 h): 44.4 mg/dL
- TG (24 h): 24.8 mg/dL
- TP (24 h): 5.7 g/dL
- gamma-GTP (24 h): 1.4 IU/L

Source: ChEMBL document CHEMBL3885861, “Open TG-GATES”
